From patent US20230025377A1, “COMPOSITIONS AND METHODS FOR TREATING OR PREVENTING PRURITUS” (HLB THERAPEUTICS CO., LTD., priority 2020, published 2023)
Where “and” joins values, the source holds several entries; their conditions need not be identical. Equal entries are not always repeated. Entries after “also recorded” stand apart in the source; their conditions may differ.

Legend:
Type in all cases: cell-based, human
HMC-1 cells [1] = test: Histamine release in PMACI-treated HMC-1 cells (ELISA); settings: for Histamine release: mean ± S.E.
Procedure: (§1) Cell culture: Human Mast Cell Line (HMC-1) cells (ATCC, Manassas, Va., USA) were maintained in IMDM (Iscove's Modified Dulbecco's Media) medium (Thermo Fisher Scientific) containing 10% fetal bovine serum (FBS; Hyclone, GE Healthcare Life Sciences) and 1% penicillin-streptomycin (Sigma-Aldrich, St. Louis, Mo., USA) in a 37° C. humidified incubator with 5% CO2. The medium was changed every 2-3 days.
(§2) HMC-1 cell treatment: HMC-1 cells were seeded in 12-well plates at a density of 7×10^5 cells per well and exposed to Tβ4 (1, 1.5, 3, and 6 μg/mL) for 1 hour before treatment with phorbol 12-myristate 13-acetate plus A23187 (PMACI; 30 nM of PMA plus 1.5 μM of A23187) to induce degranulation (activation) of mast cells and incubated at 37° C. After 2.5 hours, the medium was centrifuged (Hanil, UNION 32R PLUS) for 20 minutes at 1000×g. The supernate was transferred to another tube.
Allergic reaction factors: Histamine (HIS), Leukotrien B4 (LTB4), and Prostaglandin E2 (PGE2) amounts were evaluated to determine the effects of the disclosed composition on the release of allergic reaction factors. Histamine levels were measured using the HIS (Histamine) ELISA kit (Elabscience, Huston, Tex., USA) on the supernate of the culture medium. 50 μL of the sample was added to 96-plate wells, then 50 μL of Biotinylated Detection Ab working solution was added and incubated at 37° C. for 45 minutes. 100 μL of HRP Conjugate working solution was added and incubated at 37° C. for 30 minutes. 90 μL of Substrate reagent was added and incubated at 37° C. for 15 minutes. Washing was performed between each step. 50 μL of stop solution was added without washing. Absorbance was measured at 450 nm with a spectrophotometer (Biotek, PowerWave XS2, Winooski, Vt., USA).

HMC-1 cells [2] = test: Leukotrien B4 (LTB4) release in PMACI-treated HMC-1 cells (ELISA); settings: for Leukotrien B4 release: mean ± S.E.
Procedure: as §1, §2
The leukotriene B4 amount was measured using the LTB4 (Leukotriene B4) ELISA kit (MybioSource, San Diego, Calif., USA) on the supernate of the culture medium. 50 μL of the sample was added to 96-plate wells, then 50 μL of Biotinylated Detection Ab working solution was added and incubated at 37° C. for 45 minutes. 100 μL of HRP Conjugate working solution was added and incubated at 37° C. for 30 minutes. 90 μL of Substrate reagent was added and incubated at 37° C. for 15 minutes. Washing was performed between each step. 50 μL of stop solution was added without washing. Absorbance was measured at 450 nm with a spectrophotometer (Biotek, PowerWave XS2, Winooski, Vt., USA).

HMC-1 cells [3] = test: Prostaglandin E2 (PGE2) release in PMACI-treated HMC-1 cells (ELISA); settings: for PGE2 release: mean ± S.E.
Procedure: as §1, §2
The prostaglandin E2 (PGE2) amount was measured using a human PGE2 ELISA kit (Abeam, Cambridge, Mass.) on the supernate of the culture medium. 100 μL of the sample was added to 96-plate wells, then 50 μL of PGE2 Alkaline Phosphatase Conjugate was added. 50 ul of PGE2 Antibody was added and incubated on a shaker at room temperature for 45 minutes. 200 μL of pNPP substrate solution was added and incubated at 37° C. for 30 minutes. 90 μL of Substrate reagent was added and incubated at room temperature for 45 minutes. Washing was performed between each step. 50 μL of stop solution was added without washing. Absorbance was measured at 405 nm with a spectrophotometer (Biotek, PowerWave XS2, Winooski, Vt., USA).

HMC-1 cells [4] = test: IL-4 release in PMACI-treated HMC-1 cells (ELISA); settings: for IL-4 release: mean ± S.E.
Procedure: as §1, §2
(§3) Inflammatory cytokines: IL-4, IL-13, and TNF-α amounts were evaluated to determine the effects of the disclosed composition on the release of inflammatory cytokines. IL-4 and IL-13 amounts were measured using Human IL-4 (ab100570) and IL-13 (ab100553) ELISA kit (Abeam, Cambridge, Mass.) on the supernate of the culture medium. 100 μL of the sample was added to 96-plate wells, then 100 μL of Biotinylated IL-4 and IL-13 detection antibody were added and incubated at room temperature for 1 hour. 100 μL of HRP-streptavidin solution was added and incubated at room temperature for 45 minutes. 100 μL of TMB one step substrate reagent was added and incubated at room temperature for 30 minutes. Washing was performed between each step and incubated on a shaker. Finally, 50 μL of stop solution was added without washing. Absorbance was measured at 450 nm with a spectrophotometer (Biotek, PowerWave XS2, Winooski, Vt., USA).

HMC-1 cells [5] = test: IL-13 release in PMACI-treated HMC-1 cells (ELISA); settings: for IL-13 release: PMACI-treated HMC-1 cells, mean ± S.E.
Procedure: as §1, §2, §3

HMC-1 cells [6] = test: TNF-α release in PMACI-treated HMC-1 cells (ELISA); settings: for TNF-α release: PMACI-treated HMC-1 cells, mean ± S.E.
Procedure: as §1, §2
The TNF-α amount was measured using a human TNF-alpha ELISA kit (Abeam, Cambridge, Mass.) on the supernate of the culture medium. 100 μL of the sample was added to 96-plate wells, then 50 μL of Biotinylated TNF alpha detection antibody was added and incubated at room temperature for 3 hours. 100 μL of HRP-streptavidin solution was added and incubated at room temperature for 30 minutes. 100 μL of Chromogen TMB substrate solution was added and incubated at room temperature of the light-shielding state for 20 minutes. Washing was performed between each step and incubated on a shaker. 50 μL of stop solution was added without washing. Absorbance was measured at 450 nm with a spectrophotometer (Biotek, PowerWave XS2, Winooski, Vt., USA).

[7] = Tβ4 1 μg/ml, PMACI-treated HMC-1 cells
[8] = Tβ4 1.5 μg/ml, PMACI-treated HMC-1 cells
[9] = Tβ4 3 μg/ml, PMACI-treated HMC-1 cells
[10] = Tβ4 6 μg/ml, PMACI-treated HMC-1 cells

thymosin beta 4 (SDKPDMAEIEKFDKSKLKKTETQEKNPLPSKETIEQEKQAGES; Thymosin beta-4; UniProt P62328 2-44, looked up) [Tβ4, human protein; polypeptide composed of 43 amino acids having 4.9 kDa]
Tβ4 concentration with inhibitory effect on histamine release (HMC-1 cells [1]; PMACI-treated HMC-1 cells): above 1 μg/ml | Tβ4 concentration with the best effect of suppressing the increase of HIS release (HMC-1 cells [1]; PMACI-treated HMC-1 cells): 3 µg/mL | Histamine release (HMC-1 cells [1]; [7]): 25.96 ± 0.78 pg/mL | Histamine release (HMC-1 cells [1]; [8]): 23.91 ± 0.36 pg/mL | Histamine release (HMC-1 cells [1]; [9]): 22.00 ± 1.10 pg/mL | Histamine release (HMC-1 cells [1]; [10]): 23.46 ± 0.55 pg/mL | Amount of HIS released compared to PMACI alone (HMC-1 cells [1]; Tβ4 1, 1.5, 3, 6 μg/ml (1-6 μg/ml), p<0.01): significant inhibitory effect; also recorded: significantly decreased | Amount of HIS released compared to PMACI alone (HMC-1 cells [1]; Tβ4 less than 1 μg/ml): no significant difference | Tβ4 concentration most effective in inhibiting the increase of LTB4 release (HMC-1 cells [2]; PMACI-treated HMC-1 cells): 1.5 µg/mL and 3 µg/mL | Tβ4 concentration with inhibitory effect on LTB4 release (HMC-1 cells [2]; PMACI-treated HMC-1 cells): above 1.5 μg/ml | Leukotrien B4 release (HMC-1 cells [2]; [8]): 29.94 ± 1.97 pg/mL | Leukotrien B4 release (HMC-1 cells [2]; [9]): 28.91 ± 2.10 pg/mL | Leukotrien B4 release (HMC-1 cells [2]; [10]): 32.06 ± 2.44 pg/mL | Release level of LTB4 compared with PMACI treatment alone (HMC-1 cells [2]; Tβ4 1-6 μg/ml): significantly decreased | Amount of LTB4 released compared to PMACI alone (HMC-1 cells [2]; Tβ4 1.5 and 3 μg/ml, p<0.05): significant inhibitory effect | Tβ4 concentration most effective in inhibiting the increase of PGE2 release (HMC-1 cells [3]; PMACI-treated HMC-1 cells): 3 µg/mL | Tβ4 concentration with inhibitory effect on PGE2 release (HMC-1 cells [3]; PMACI-treated HMC-1 cells): above 3 μg/ml | PGE2 release (HMC-1 cells [3]; [8]): 97.43 ± 2.56 pg/mL | PGE2 release (HMC-1 cells [3]; [9]): 94.96 ± 0.87 pg/mL | Amount of PGE2 released compared to PMACI alone (HMC-1 cells [3]; Tβ4 3 μg/ml, p<0.05): significant inhibitory effect | PGE2 release (HMC-1 cells [3]; [10]): 106.00 ± 3.13 pg/mL | Release level of PGE2 compared with PMACI treatment alone (HMC-1 cells [3]; Tβ4 1-6 μg/ml): significantly decreased | Tβ4 concentration with inhibitory effect on IL-4 release (HMC-1 cells [4]; PMACI-treated HMC-1 cells): above 1.5 μg/ml | IL-4 release (HMC-1 cells [4]; [7]): 88.27 ± 10.18 pg/mL | IL-4 release (HMC-1 cells [4]; [8]): 79.77 ± 4.27 pg/mL | IL-4 release (HMC-1 cells [4]; [9]): 65.43 ± 7.20 pg/mL | IL-4 release (HMC-1 cells [4]; [10]): 64.01 ± 3.02 pg/mL | Release level of IL-4 compared with PMACI treatment alone (HMC-1 cells [4]; Tβ4 1-6 μg/ml): significantly decreased | Amount of IL-4 released compared to PMACI alone (HMC-1 cells [4]; Tβ4 1.5, 3, and 6 μg/ml, p<0.05): significant inhibitory effect | IL-13 release (HMC-1 cells [5]; Tβ4 1 μg/ml): 30.07 ± 2.33 pg/mL | IL-13 release (HMC-1 cells [5]; Tβ4 1.5 μg/ml): 28.52 ± 2.83 pg/mL | IL-13 release (HMC-1 cells [5]; Tβ4 3 μg/ml): 28.22 ± 2.33 pg/mL | IL-13 release (HMC-1 cells [5]; Tβ4 6 μg/ml): 26.98 ± 2.45 pg/mL | Amount of IL-13 released compared to PMACI alone (HMC-1 cells [5]; Tβ4 1, 1.5, 3, and 6 μg/ml (1-6 μg/ml), p<0.05): significant inhibitory effect; also recorded: significantly decreased | TNF-α release (HMC-1 cells [6]; Tβ4 1 μg/ml): 513.77 ± 17.85 pg/mL | TNF-α release (HMC-1 cells [6]; Tβ4 1.5 μg/ml): 380.23 ± 7.97 pg/mL | Reduction of TNF-α release compared to PMACI alone (HMC-1 cells [6]; Tβ4 3 μg/ml): reduced 37.4% | TNF-α release (HMC-1 cells [6]; Tβ4 3 μg/ml): 379.42 ± 8.03 pg/mL | Reduction of TNF-α release compared to PMACI alone (HMC-1 cells [6]; Tβ4 6 μg/ml): 37.1% | TNF-α release (HMC-1 cells [6]; Tβ4 6 μg/ml): 381.46 ± 12.75 pg/mL | Amount of TNF-α released compared to PMACI alone (HMC-1 cells [6]; Tβ4 1, 1.5, 3, and 6 μg/ml (1-6 μg/ml), p<0.01): significant inhibitory effect; also recorded: significantly decreased
